Laboratory results taken from patent publication US20220062436A1, “DRUG-PROTEIN CONJUGATES” (priority 2012, published 2022).
Square brackets hold non-standard residues; d marks the D form. Peptide text beside a SMILES is read from it. * marks the point of attachment. Dolaproine = CO[C@@H]([C@@H]1CCCN1)[C@@H](C)C(=O)O; Dil = CC[C@H](C)[C@H](NC)[C@@H](CC(=O)O)OC; X1 = C[C@@H](N*)[C@@H](O)c1ccccc1; NMeV = CN[C@H](C(=O)O)C(C)C

Legend:
[1] = tested on: HER2-positive BT-474 cells; assay: Cell viability assay (CellTiter Glo luminescence), inhibition of cell growth; assay type: cell-based; settings: 96 h incubation
Protocol: (§1) The in vitro efficacy of the mAb-reagent 1 conjugates were determined by measuring the inhibitory effect on cell growth of HER-2 receptor over-expressing cancer cell lines.
(§2) Loss of tumour cell viability following treatment with cytotoxic drugs or ADCs in vitro can be measured by growing cell lines in the presence of increasing concentrations of drugs or ADCs and quantifying the loss of proliferation or metabolic activity using CellTiter Glo® Luminescence reagent (Promega Corp. Technical Bulletin TB288; Lewis Phillips G. D, Cancer Res 2008; 68:9280-9290). The protocol describes cell seeding, drug treatment and determination of the cell viability in reference to untreated cells based on ATP synthesis, which is directly related to the number of cells present in the well.
(§3) HER2-positive SK-BR-3 and BT-474 cells were trypsinised with 3 mL Trypsin EDTA for 5-15 min. Trypsinisation was stopped by adding 10 mL complete medium, and cells were transferred to a 50 mL Falcon tube. Cells were counted using a Neubauer haemocytometer and adjusted to a cell density of 1×10^5/mL for BT-474 and 5×10^4/mL for SK-BR-3 respectively. Cells were seeded (100 μL/well) into poly-D-lysine coated opaque-walled 96-well plates and incubated for 24 h at 37° C. and 5% CO2. Tumour cell lines SK-BR-3 (ATCC-HTB-30) and BT-474 (ATCC-HTB-20) were purchased from the American Type Culture Collection. SK-BR-3 cells were grown in McCoy's 5A medium (Life Technologies®), 10% fetal bovine serum, 100 u/mL Penicillin and 100 μg/mL Streptomycin. BT-474 cells were grown in DMEM/F-12 medium (Life Technologies®), 10% fetal bovine serum, 100 u/mL Penicillin and 100 μg/mL Streptomycin. […]
(§4) The cell viability assay was carried out using the Cell-Titer Glo® Luminescence reagent, as described by the manufacturer's instructions, (Promega Corp. Technical Bulletin TB288; Lewis Phillips G. D, Cancer Res 2008; 68:9280-9290). […] Luminescence was recorded using a plate reader (e.g. MD Spectramax M3 plate reader), and data subsequently analysed using a four parameter non-linear regression model.
(§5) The results are shown in FIG. 6, which illustrates cell viability responses to treatment with either antibody-reagent 1 conjugate within SKBR-3 or BT-474 cells. Viability is expressed as % of untreated cells. […]
(§6) The in vitro efficacy of the reagent 6 and reagent 9 antibody conjugates prepared in Example 12 were determined by measuring the inhibitory effect on cell growth of HER-2 receptor over-expressing cancer cell lines by the method of Example 9.
(§7) The results are shown in FIG. 7, which illustrates cell viability responses to treatment with either reagent 6 conjugate or reagent 9 conjugate within SKBR-3 or BT-474 cells. Viability is expressed as % of untreated cells. […]

[2] = tested on: HER2-positive SK-BR-3 cells; assay: as above; assay type: cell-based; settings: 96 h incubation
Protocol: as §1, §2, §3, §4, §5, §6, §7

CC[C@H](C)[C@@H]([C@@H](CC(=O)N1CCC[C@H]1[C@H](OC)[C@@H](C)C(=O)N[C@H](C)[C@@H](O)c1ccccc1)OC)N(C)C(=O)[C@@H](NC(=O)[C@@H](NC)C(C)C)C(C)C [MMAE, monomethyl auristatin E] (H-[NMeV]V[Dil][Dolaproine]-X1)
IC50 ([1]; Example 9, Table 5): 0.75 nM
IC50 ([1]; Example 13, Table 7): 0.85 nM
IC50 ([2]; Example 9, Table 5): 0.2 nM
IC50 ([2]; Example 13, Table 7): 0.27 nM
